From patent publication US11434242B2, “Dopamine-b-hydroxylase inhibitors” (BIAL-PORTELA & Cª, S.A., priority 2017, dated 2022) come the findings set out here.

The assay has as its target T1, Dopamine beta hydroxylase (Homo sapiens, UniProt P09172).
T1 construct: 125 μl of plasma; tissue Instituto Português do Sangue Transplantação; host or cells: human plasma from healthy donors
T1 sequence (P09172 40-617 limits assumed): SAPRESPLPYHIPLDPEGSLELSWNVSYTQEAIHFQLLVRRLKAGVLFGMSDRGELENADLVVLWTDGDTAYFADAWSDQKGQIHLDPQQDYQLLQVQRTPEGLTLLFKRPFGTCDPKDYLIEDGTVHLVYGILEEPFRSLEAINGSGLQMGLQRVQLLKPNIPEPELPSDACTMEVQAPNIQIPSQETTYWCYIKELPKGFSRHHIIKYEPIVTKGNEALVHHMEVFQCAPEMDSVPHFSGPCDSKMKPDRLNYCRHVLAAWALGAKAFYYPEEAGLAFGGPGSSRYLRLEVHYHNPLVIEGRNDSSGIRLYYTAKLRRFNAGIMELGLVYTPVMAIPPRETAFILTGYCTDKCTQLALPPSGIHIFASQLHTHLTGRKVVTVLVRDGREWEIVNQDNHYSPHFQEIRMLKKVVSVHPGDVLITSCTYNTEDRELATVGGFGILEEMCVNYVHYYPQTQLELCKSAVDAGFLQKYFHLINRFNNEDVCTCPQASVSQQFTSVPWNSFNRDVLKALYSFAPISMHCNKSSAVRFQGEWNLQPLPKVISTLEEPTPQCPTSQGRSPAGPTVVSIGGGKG
The assay is described as follows: Dopamine beta hydroxylase activity in human plasma. The class given is biochemical. Particulars: for Plasma (0.01 μM), activity in % of control: inhibitor 0.01 μM; for Plasma (0.1 μM), activity in % of control: inhibitor 0.1 μM. An outline of the steps: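 Octopamine production from tyramine over 45 min at 37° C, measured photometrically at 330 nm after SCX extraction and periodate oxidation against an octopamine standard curve, indicates plasma DβH activity. Compounds tested at final 10, 100 and 1000 nM in human plasma, pH 5.0 cofactor buffer, 10 min preincubation; results as % of control.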

Take `Cl.Cn1c(CCNCC(F)(F)F)c2n(c1=S)C[C@@]1(c3cc(Br)ccc3F)C[C@@H]21` [Example 334, (5aS,6aR)-5a-(5-bromo-2-fluorophenyl)-2-methyl-1-(2-((2,2,2-trifluoroethyl)amino)ethyl)-5,5a,6,6a-tetrahydrocyclopropa[3,4]pyrrolo[1,2-c]imidazole-3(2H)-thione Hydrochloride]: the “Plasma (0.01 μM), activity in % of control” value is listed as 80.3 % of control and the “Plasma (0.1 μM), activity in % of control” value was 41.9 % of control.
With `O=C(Cc1[nH]c(=S)n2c1C[C@H](c1c(F)c(F)cc(F)c1F)C2)N[C@H]1CCOC1` [Example 369, 2-((R)-6-(2,3,5,6-tetrafluorophenyl)-3-thioxo-2,5,6,7-tetrahydro-3H-pyrrolo[1,2-c]imidazol-1-yl)-N—((S)-tetrahydrofuran-3-yl)acetamide], the “Plasma (0.01 μM), activity in % of control” value is 86.0 % of control and the “Plasma (0.1 μM), activity in % of control” value is 60.1 % of control.
For `Cn1c(CC(=O)N2CCC[C@H]2C(F)(F)F)c2n(c1=S)C[C@@H](c1c(F)ccc(F)c1F)C2` [Example 248, 2-((R)-2-methyl-3-thioxo-6-(2,3,6-trifluorophenyl)-2,5,6,7-tetrahydro-3H-pyrrolo[1,2-c]imidazol-1-yl)-1-((S)-2-(trifluoromethyl)pyrrolidin-1-yl)ethan-1-one], the “Plasma (0.01 μM), activity in % of control” value is listed as 98.2 % of control and the “Plasma (0.1 μM), activity in % of control” value is 51.8 % of control.
The corresponding values for `Cn1c(CC(=O)N2CCC(CF)C2)c2n(c1=S)C[C@H](c1c(F)ccc(Br)c1F)C2` (stereo partly drawn) [Example 458, 2-((S)-6-(3-bromo-2,6-difluorophenyl)-2-methyl-3-thioxo-2,5,6,7-tetrahydro-3H-pyrrolo[1,2-c]imidazol-1-yl)-1-(3-(fluoromethyl)pyrrolidin-1-yl)ethan-1-one] are 58.5 % of control and 12.2 % of control.
The corresponding values for `Fc1ccc(Br)c(F)c1[C@H]1Cc2c(CCN[C@@H]3CCOC3)[nH]c(=S)n2C1` [Example 176, (R)-6-(3-bromo-2,6-difluorophenyl)-1-(2-(((R)-tetrahydrofuran-3-yl)amino)ethyl)-2,5,6,7-tetrahydro-3H-pyrrolo[1,2-c]imidazole-3-thione] are 95.3 % of control and 74.9 % of control.
With `O=C(Cc1[nH]c(=S)n2c1[C@@H]1C[C@]1(c1cc(Cl)ccc1F)C2)NCc1ccccc1` [Example 156, N-benzyl-2-((5aS,6aR)-5a-(5-chloro-2-fluorophenyl)-3-thioxo-2,3,5,5a,6,6a-hexahydrocyclopropa[3,4]pyrrolo[1,2-c]imidazol-1-yl)acetamide], the “Plasma (0.01 μM), activity in % of control” value is reported as 88.6 % of control and the “Plasma (0.1 μM), activity in % of control” value was 40.3 % of control.
For the molecule `CN(C(=O)Cc1[nH]c(=S)n2c1C[C@@H](c1c(F)ccc(Cl)c1F)C2)C1CCOC1` (stereo partly drawn) [Example 384, 2-((S)-6-(3-chloro-2,6-difluorophenyl)-3-thioxo-2,5,6,7-tetrahydro-3H-pyrrolo[1,2-c]imidazol-1-yl)-N-methyl-N-(tetrahydrofuran-3-yl)acetamide], the “Plasma (0.01 μM), activity in % of control” value was 104.5 % of control and the “Plasma (0.1 μM), activity in % of control” value is 43.4 % of control.
The corresponding values for `O=S1(=O)CCC(NCCc2[nH]c(=S)n3c2C[C@H](c2c(F)ccc(Br)c2F)C3)CC1` [Example 178, (R)-6-(3-bromo-2,6-difluorophenyl)-1-(2-((1,1-dioxidotetrahydro-2H-thiopyran-4-yl)amino)ethyl)-2,5,6,7-tetrahydro-3H-pyrrolo[1,2-c]imidazole-3-thione] are 88.2 % of control and 29.5 % of control.
The matching figures for `Cn1c(CC(=O)N[C@H]2CC[C@H](O)CC2)c2n(c1=S)C[C@@]1(c3cc(Br)ccc3F)C[C@@H]21` [Example 325, 2-((5aS,6aR)-5a-(5-bromo-2-fluorophenyl)-2-methyl-3-thioxo-2,3,5,5a,6,6a-hexahydrocyclopropa[3,4]pyrrolo[1,2-c]imidazol-1-yl)-N-((1r,4R)-4-hydroxycyclohexyl)acetamide]: 34.2 % of control and 3.8 % of control.
Consider `O=C(Cc1[nH]c(=S)n2c1C[C@H](c1c(F)ccc(Br)c1F)C2)N1CCC(F)(F)CC1` [Example 117, (R)-2-(6-(3-bromo-2,6-difluorophenyl)-3-thioxo-2,5,6,7-tetrahydro-3H-pyrrolo[1,2-c]imidazol-1-yl)-1-(4,4-difluoropiperidin-1-yl)ethan-1-one], for which the “Plasma (0.01 μM), activity in % of control” value is 74.5 % of control and the “Plasma (0.1 μM), activity in % of control” value is 43.0 % of control.
For the molecule `Cn1c(CC(=O)N[C@@H]2CCCOC2)c2n(c1=S)C[C@@]1(c3c(F)ccc(Cl)c3F)C[C@@H]21` [Example 415, 2-((5aS,6aR)-5a-(3-chloro-2,6-difluorophenyl)-2-methyl-3-thioxo-2,3,5,5a,6,6a-hexahydrocyclopropa[3,4]pyrrolo[1,2-c]imidazol-1-yl)-N—((R)-tetrahydro-2H-pyran-3-yl)acetamide], the “Plasma (0.01 μM), activity in % of control” value is given as 14.9 % of control and the “Plasma (0.1 μM), activity in % of control” value was 2.1 % of control.
Take `O=C(O)Cc1[nH]c(=S)n2c1C[C@H](c1c(F)c(F)cc(F)c1F)C2` [Example 15, (R)-2-(6-(2,3,5,6-tetrafluorophenyl)-3-thioxo-2,5,6,7-tetrahydro-3H-pyrrolo[1,2-c]imidazol-1-yl)acetic Acid]: the “Plasma (0.1 μM), activity in % of control” value is listed as 66.0 % of control. The “Plasma (1 μM), activity in % of control” value (inhibitor 1 μM) is given as 11.4 % of control.
As for `CN(CCO)C(=O)Cc1c2n(c(=S)n1C)C[C@@H](c1c(F)ccc(F)c1F)C2` [Example 293, (R)—N-(2-hydroxyethyl)-N-methyl-2-(2-methyl-3-thioxo-6-(2,3,6-trifluorophenyl)-2,5,6,7-tetrahydro-3H-pyrrolo[1,2-c]imidazol-1-yl)acetamide], the “Plasma (0.01 μM), activity in % of control” value is on record as 104.8 % of control and the “Plasma (0.1 μM), activity in % of control” value is on record as 86.0 % of control.
The matching figures for `CS(=O)(=O)C1CCN(CCc2[nH]c(=S)n3c2C[C@H](c2c(F)ccc(Br)c2F)C3)CC1` [Example 179, (R)-6-(3-bromo-2,6-difluorophenyl)-1-(2-(4-(methylsulfonyl)piperidin-1-yl)ethyl)-2,5,6,7-tetrahydro-3H-pyrrolo[1,2-c]imidazole-3-thione]: 93.5 % of control and 48.8 % of control.
The matching figures for `Cn1c(CC(=O)NC[C@@H]2CCCO2)c2n(c1=S)C[C@H](c1c(F)ccc(Cl)c1F)C2` [Example 336, 2-((S)-6-(3-chloro-2,6-difluorophenyl)-2-methyl-3-thioxo-2,5,6,7-tetrahydro-3H-pyrrolo[1,2-c]imidazol-1-yl)-N—(((S)-tetrahydrofuran-2-yl)methyl)acetamide]: 50.0 % of control and 9.4 % of control.
